Test results taken from patent US20240376437A1, “TARGETING VON WILLEBRAND FACTOR TO MODEL DISEASE IN HUMAN PLURIPOTENT STEM CELLS” (University of Washington, priority 2023, published 2024).

What was measured:
Type in all cases: cell-based, human
VWF level in HUVEC = VWF level in HUVEC treated with DAPT (immunofluorescence and immunoblot)
Description: (§1) Cells were fixed with 4% paraformaldehyde in 1×PBS for 15 minutes and subsequently washed three times with 1×PBS. For immunofluorescence, fixed samples were blocked with 5% donkey serum plus 0.1% Triton X-100 in 1×PBS, incubated overnight in 3% bovine serum albumin (BSA) (Sigma Aldrich)+1×PBS with primary antibodies, washed, incubated with secondary antibodies, washed and imaged. Primary antibodies included antibodies for VWF (Agilent Technologies; A008202), β-Actin (Cell Signaling Technology; 4970); DAPI (Cayman Chemical Company; 14285), Angiopoietin 2 (R&D Systems; AF623), CD31 (BD Biosciences; 555444), CD144 (BD Biosciences; 555661), and Notch1 (Cell Signaling Technology; 3608S). Fluorescence labeled antibodies included anti-rabbit IgG secondary antibody Alexa Fluor 488 (Thermo Fisher Scientific; A32731), anti-mouse IgG secondary antibody Alexa Fluor 555 (Thermo Fisher Scientific; A21422), and FITC anti-VWF antibody (Abcam; ab8822). To compare different experimental conditions, images were collected at identical microscopy setup using wide field or confocal fluorescence microscope. Image analysis was performed using Fiji software.
Whole cells lysate was extracted using 1× RIPA lysis and extraction buffer (Thermo Fisher Scientific) supplemented with 1× protease inhibitor cocktail (Sigma Aldrich) and 1 μL Benzonase nuclease (Sigma Aldrich) per sample. […]

[1] = system: VWF at the hPSC-EC surface; experiment: VWF string formation assay under flow after PMA stimulation; conditions: 3 μM DAPT from day 6; 100 ng/mL PMA 20 min, flow 2.5 dyn/cm^2 5 min
Description: The hPSC-EC from day 5 of cell differentiation were seeded in a flow chamber (ibidi GmbH, μ-slide VI 0.4, 17×3.8×0.4 mm) precoated with 2.5 mg/mL collagen (Corning, Rate Tail Collagen Type I). Cells were fed by EGM endothelial cell growth medium+20 ng/ml recombinant human VEGF165+20 ng/mL recombinant human FGF-basic+1 μM Chir-99021 until day 12 of cell differentiation. The flow chamber was washed by 100 μl EBM endothelial cell growth basal medium (Lonza) twice. Cells were stimulated in EBM medium with 100 ng/mL PMA at stasis at 37° C. and 5% CO2 for 20 minutes and then followed by flow (2.5 dyn/cm^2 wall shear stress) using a syringe pump for 5 minutes. After flow stopped, the flow chamber was blocked by 6% BSA (Sigma Aldrich) in EBM medium for 10 minutes. […] Cells were washed by EBM medium for three times and imaged under Olympus wide field fluorescence microscope. […]
VWF forms strings on HUVEC surface upon stimulation by agonists such as phorbol 12-myristate 13-acetate (PMA) (FIG. 10A). […] The effect of enhancing VWF level on VWF string formation was then evaluated. hPSC-EC were transferred into a microfluidic channel on day 5 of differentiation and treated with 3 μM DAPT from day 6 onwards. […] VWF attached to the EC surface was detected live by FITC-labeled anti-VWF antibody, which was introduced under flow. […]

[2] = system: VWF expression level in hPSC-EC; experiment: VWF expression level in hPSC-EC by immunofluorescence
Description: as §1, with “Image analysis was performed using Fiji software.” left out
hPSC-EC were treated with blood plasma or compounds to test their effects on VWF expression level in cells. […] Due to the high fluorescence background in 40% and 80% plasma treated cells, we only used less than 40% plasma to treat cells for immunofluorescence imaging. […]

[3] = system: VWF expression level in hPSC-EC; experiment: VWF and CD144 protein in hPSC-EC by immunoblot
Description: Whole cells lysate was extracted using 1× RIPA lysis and extraction buffer (Thermo Fisher Scientific) supplemented with 1× protease inhibitor cocktail (Sigma Aldrich) and 1 μL Benzonase nuclease (Sigma Aldrich) per sample. Each sample was supplied with 100 mM DTT (Sigma Aldrich) and 1× Laemmli sample buffer (Bio-Rad) and heated at 95° C. for 5 minutes. The primary antibodies above were added to samples and followed by anti-rabbit or anti-mouse IgG secondary antibody conjugated with HRP (Thermo Fisher Scientific; 31460 or 31430). Immunoblots were imaged in the presence of Pierce ECL Western Blotting substrate (Thermo Fisher Scientific) and quantified using Fiji software.
Ten compounds were added separately to hPSC culture medium on day 6 of the cell differentiation and maintained in the media thereafter. The untreated cell culture medium was EGM with additional 20 ng/ml VEGF, 20 ng/ml FGF, and 1 μM Chir99021. Based on untreated cell culture medium, we tested the following additional concentrations of compounds: VEGF (30, 70, 120 ng/ml, Peprotech 100-20), FGF (30, 70, 120 ng/ml, PeproTech 100-18B), human transforming growth factor β1 (TGFβ1, 1, 3, 10 ng/ml, R&D Systems 240-B), lipopolysaccharide (LPS, 1, 3, 10 ng/ml, Santa Cruz sc-3535), human interferon gamma (IFN, 1, 3, 10 ng/ml, Peprotech 300-02), human noggin (1, 3, 10 ng/ml, Peprotech, 120-10C), Chir99021 (1, 3, 10 µM, Reprocell 04-0004-10), Smoothened agonist (SAG, 1, 3, 10 μM, Cayman Chemical 11914), BMP4 (1, 3, 10, 50 ng/ml, R&D Systems 314-BP), or DAPT (1, 3, 10 µM, Tocris 2634). Concentrations of these compounds that were likely to be safe and efficacious were used based on the literature and previous experience. To treat HUVEC with DAPT (Tocris 2634), 0/10/30 μM DAPT was added to the cell culture medium EGM on day 2 after cell passaging and maintained in the media thereafter. The cell culture medium with corresponding compound was changed every two days until cell fixation or cell lysis experiment on day 10-14 for hSPC-EC or day 7-9 for HUVEC.

hPSC-EC = hPSC-EC maturation: cell size and CD144 junction morphology; conditions: 0 or 3 μM DAPT
Description: as §1, with “Image analysis was performed using Fiji software.” left out
hPSC-EC were treated with blood plasma or compounds to test their effects on VWF expression level in cells. […] Due to the high fluorescence background in 40% and 80% plasma treated cells, we only used less than 40% plasma to treat cells for immunofluorescence imaging.

SMILES: C[C@H](NC(=O)Cc1cc(F)cc(F)c1)C(=O)N[C@H](C(=O)OC(C)(C)C)c1ccccc1 [DAPT]
- VWF level in HUVEC by immunofluorescence and immunoblot (VWF level in HUVEC; 0/10/30 μM DAPT): enhanced VWF level with increased DAPT concentrations
- VWF increase compared to untreated controls (VWF level in HUVEC; HUVEC, 10 μM DAPT): ~1.7 times
- VWF attached to the EC surface of control hPSC-EC [1]: numerous foci of VWF at the cell surface
- VWF string formation [1]: formed strings attached to the EC surface
- Levels of VWF by immunofluorescence in screen of ten compounds ([2]; added day 6 of differentiation, DAPT 1 μM): substantially increased levels of VWF
- Increase of VWF fluorescence intensity vs untreated control, repeated trials ([2]; final concentration of 1 μM DAPT): approximately two-fold
- CD144 marker for EC ([3]; DAPT-treated hPSC-EC): does not affect CD144
- VWF protein by immunoblot ([3]; DAPT-treated hPSC-EC): confirmed the increase in VWF protein
- DAPT final concentration at which VWF protein peaks (immunoblot) ([3]; hPSC-EC, DAPT 1, 3, 10 μM): ~3 µM
- Changes in hPSC-EC size or junctional morphology (hPSC-EC): did not induce the changes
